11 compounds from patent US4535075A, “Dithiolane derivative, process for producing the same and use thereof” (Nihon Nohyaku Co., Ltd., priority 1982, dated 1985) can be followed below.

Molecules are shown by their SMILES.

One series has as its system liver damage induced by carbon tetrachloride. Nature of the series: Protective (Controlling) effect on liver damage induced by carbon tetrachloride. It counts as in vivo, mice (dd strain). The following applies: 250 mg/kg p.o., CCl4 0.05 ml/kg after 6 h, 24 h; CCl4 alone >2,100. The source says:
Protective (Controlling) Effect on liver damage induced by carbon tetrachloride.
Carbon tetrachloride administration induces centrilobular necrosis of the liver associated with loss of diphosphopyridine nucleotide, hepatic glycogen, coenzyme A and increase in neutral fat. Release of several enzymes from the hepatocytes, and increases of enzyme activities in the plasma are recognized as the result of the damage of the liver.
A suitable means for evaluating the degree induced by carbon tetrachloride or the degree of protection afforded by drugs is to study the plasma glutamic-pyruvic transaminase (p-GPT) activity. […]
After 6 hours, carbon tetrachloride was administered orally 0.05 ml/kg.
Animals were killed 24 hours after carbon tetrachloride administration, and the liver was grossly observed.
The plasma was obtained by centrifugation. Activity of p-GPT were determined by the method of Reitman and Frankel and expressed in Karmen units.
Score for liver damage index was as follows:
1 Each figure indicated average of 5 mice.
`CCOC(=O)C(C(C)=O)=C1SC(O)C(O)S1` (centres unmarked) [Compound 35] returned a p-GPT of 92 Karmen units.
Same read-out and setting: the value for `CCCCCOC(=O)C(C(=O)OCCCCC)=C1SC(O)C(O)S1` (centres unmarked) [Compound 8] was 21 Karmen units; that for `CCCOC(=O)C(C(C)=O)=C1SC(O)C(O)S1` (centres unmarked) [Compound 36] was 30 Karmen units.
On the same count and under the same terms, the value for `C=CCOC(=O)C(C(C)=O)=C1SC(O)C(O)S1` (centres unmarked) [Compound 45] was 13 Karmen units; that for `COC(=O)C(C(C)=O)=C1SC(O)C(O)S1` (centres unmarked) [Compound 34] was 31 Karmen units.
Take `CCCC(=O)C(C(=O)OCC)=C1SC(O)C(O)S1` (centres unmarked) [Compound 50]: the p-GPT worked out at 75 Karmen units.
The same measure, in the same setting: to `CCCCOC(=O)C(C(C)=O)=C1SC(O)C(O)S1` (centres unmarked) [Compound 38] belongs 31 Karmen units; to `CC(=O)C(C(=O)OC(C)(C)C)=C1SC(O)C(O)S1` (centres unmarked) [Compound 41], 105 Karmen units; to `C#CCOC(=O)C(C(C)=O)=C1SC(O)C(O)S1` (centres unmarked) [Compound 46], 16 Karmen units.
Same read-out and setting: to `COCCOC(=O)C(C(C)=O)=C1SC(O)C(O)S1` (centres unmarked) [Compound 47] belongs 25 Karmen units; to `CCOC(=O)C(C(=O)OCC)=C1SC(O)C(O)S1` (centres unmarked) [Compound 2, diethyl 4,5-dihydroxy-1,3-dithiolan-2-ylidenemalonate], 15 Karmen units.

Still in this series, the particulars now being: 250 mg/kg p.o., CCl4 0.05 ml/kg after 6 h, 24 h; average of 5 mice; 0 Normal, 2 Slightly recognized, 4 Clearly observable damage, 6 Heavy damage; CCl4 alone 5.0.
Regarding `CCOC(=O)C(C(C)=O)=C1SC(O)C(O)S1` (centres unmarked) [Compound 35], the “Liver Damage Index” value was found to be 0.0.
Still for that read-out and setting: to `CCCCCOC(=O)C(C(=O)OCCCCC)=C1SC(O)C(O)S1` (centres unmarked) [Compound 8] belongs 0.0.
The same measure, in the same setting: to `CCCOC(=O)C(C(C)=O)=C1SC(O)C(O)S1` (centres unmarked) [Compound 36] belongs 0.2; to `C=CCOC(=O)C(C(C)=O)=C1SC(O)C(O)S1` (centres unmarked) [Compound 45], 0.0; to `COC(=O)C(C(C)=O)=C1SC(O)C(O)S1` (centres unmarked) [Compound 34], 0.0.
Same read-out and setting: the value for `CCCC(=O)C(C(=O)OCC)=C1SC(O)C(O)S1` (centres unmarked) [Compound 50] was 1.2; that for `CCCCOC(=O)C(C(C)=O)=C1SC(O)C(O)S1` (centres unmarked) [Compound 38] was 0.0.
Consider `CC(=O)C(C(=O)OC(C)(C)C)=C1SC(O)C(O)S1` (centres unmarked) [Compound 41], for which the “Liver Damage Index” value worked out at 0.6.
Turning to `C#CCOC(=O)C(C(C)=O)=C1SC(O)C(O)S1` (centres unmarked) [Compound 46], the “Liver Damage Index” value is reported as 0.0.
`COCCOC(=O)C(C(C)=O)=C1SC(O)C(O)S1` (centres unmarked) [Compound 47]: the “Liver Damage Index” value came to 0.2.
`CCOC(=O)C(C(=O)OCC)=C1SC(O)C(O)S1` (centres unmarked) [Compound 2, diethyl 4,5-dihydroxy-1,3-dithiolan-2-ylidenemalonate]: the “Liver Damage Index” value came to 0.0.

The test system of a further series is liver damage induced by α-naphthyl isothiocyanate (ANIT). Nature of the series: Protective effect on liver damage induced by ANIT (Method 2). The class given is in vivo, mice (dd strain). The following applies: Table 3-3; 250 mg/kg p.o., ANIT 35 mg/kg p.o. after 6 h, 24 h; control 2.9, ANIT alone >9.6. On the procedure:
(§1) Protective effect on liver damage induced by α-naphthyl isothiocyanate (referred to as "ANIT", hereinafter).
Test compounds, dissolved or suspended in olive oil or diethyleneglycol, were orally administered at the dose of 250 mg/kg to the mice (Six or Seven-week-old male mice-dd strain).
After 6 hours, ANIT dissolved in olive oil, was aministered orally at 35 mg/kg.
Mice were sacrificed at 24 hours after ANIT administration and blood samples were collected. The blood samples were centrifuged and plasma was obtained.
Plasma GPT activity and alkaline phosphatase activity were determined by Reitman & Frankel's method and Bessey-Lowry's method, respectively.
The activity was expressed with Karmen Unit and Bessey-Lowry Unit, respectively.
`CCOC(=O)C(C(C)=O)=C1SC(O)C(O)S1` (centres unmarked) [Compound 35]: the Alkaline phosphatase activity is given as 4.6 B-L.V.
Take `CCCOC(=O)C(C(C)=O)=C1SC(O)C(O)S1` (centres unmarked) [Compound 36]: the Alkaline phosphatase activity amounted to 3.9 B-L.V.
Same read-out and setting: the value for `C=CCOC(=O)C(C(C)=O)=C1SC(O)C(O)S1` (centres unmarked) [Compound 45] was 5.6 B-L.V; that for `COC(=O)C(C(C)=O)=C1SC(O)C(O)S1` (centres unmarked) [Compound 34] was 4.2 B-L.V; that for `CCCCOC(=O)C(C(C)=O)=C1SC(O)C(O)S1` (centres unmarked) [Compound 38] was 5.3 B-L.V.
Same read-out and setting: the value for `CC(=O)C(C(=O)OC(C)(C)C)=C1SC(O)C(O)S1` (centres unmarked) [Compound 41] was 6.0 B-L.V; that for `C#CCOC(=O)C(C(C)=O)=C1SC(O)C(O)S1` (centres unmarked) [Compound 46] was 5.3 B-L.V; that for `COCCOC(=O)C(C(C)=O)=C1SC(O)C(O)S1` (centres unmarked) [Compound 47] was 4.2 B-L.V.

The same series, now with this note: Table 3-3; 250 mg/kg p.o., ANIT 35 mg/kg p.o. after 6 h, 24 h; control 17.5, ANIT alone >460.2.
In turn, `CCOC(=O)C(C(C)=O)=C1SC(O)C(O)S1` (centres unmarked) [Compound 35] registered a p-GPT of over 245.0 K.U.
`CCCOC(=O)C(C(C)=O)=C1SC(O)C(O)S1` (centres unmarked) [Compound 36] yielded a p-GPT of 60.0 K.U.
In turn, `C=CCOC(=O)C(C(C)=O)=C1SC(O)C(O)S1` (centres unmarked) [Compound 45] showed a p-GPT of 136.9 K.U.
Same read-out and setting: to `COC(=O)C(C(C)=O)=C1SC(O)C(O)S1` (centres unmarked) [Compound 34] belongs 32.7 K.U; to `CCCCOC(=O)C(C(C)=O)=C1SC(O)C(O)S1` (centres unmarked) [Compound 38], 29.4 K.U.
On the same count and under the same terms, the value for `CC(=O)C(C(=O)OC(C)(C)C)=C1SC(O)C(O)S1` (centres unmarked) [Compound 41] was 132.7 K.U.
Still for that read-out and setting: to `C#CCOC(=O)C(C(C)=O)=C1SC(O)C(O)S1` (centres unmarked) [Compound 46] belongs 29.9 K.U.
In the case of `COCCOC(=O)C(C(C)=O)=C1SC(O)C(O)S1` (centres unmarked) [Compound 47], the p-GPT was determined as 40.1 K.U.

Staying with this series, now noted: Table 3-4; 250 mg/kg p.o., ANIT 35 mg/kg p.o. after 6 h, 24 h; control 3.7, ANIT alone 4.5.
`CCCC(=O)C(C(=O)OCC)=C1SC(O)C(O)S1` (centres unmarked) [Compound 50] registered an Alkaline phosphatase activity of 3.0 B-L.V.

The series is the same for the next values; noted with them: Table 3-4; 250 mg/kg p.o., ANIT 35 mg/kg p.o. after 6 h, 24 h; control 11.3, ANIT alone 300.3.
`CCCC(=O)C(C(=O)OCC)=C1SC(O)C(O)S1` (centres unmarked) [Compound 50] had a p-GPT of 18.5 K.U.

System in a further series: not listed separately
Nature of the series: acute oral toxicity (LD50). The following applies: in vivo, male rat. Here is the method: The compounds represented by the general formula (I) are low in toxicity to mammals.
Their acute oral toxicities to male rat expressed as LD50 values are shown below.
For example, the LD50 values of the compound No. 1, No. 2, No. 3, No. 8 and No. 12 are 1,000-3,000 mg/kg, 3,000-5,000 mg/kg, more than 5,000 mg/kg, more than 5,000 mg/kg and 1,000-3,000 mg/kg, respectively.
Usually LD50 stands for the dose expected to kill half of the subjects tested. Low readings indicate a more toxic substance, high ones a less toxic substance. Consider `CCCCCOC(=O)C(C(=O)OCCCCC)=C1SC(O)C(O)S1` (centres unmarked) [Compound 8], for which the LD50 was over 5000 mg/kg.
Same read-out and setting: to `CCOC(=O)C(C(=O)OCC)=C1SC(O)C(O)S1` (centres unmarked) [Compound 2, diethyl 4,5-dihydroxy-1,3-dithiolan-2-ylidenemalonate] belongs 3000 to 5000 mg/kg.

In a further series the test system is liver damage induced by α-naphthyl isothiocyanate (ANIT). Briefly: Protective effect on liver damage induced by ANIT (Method 1). It counts as in vivo, mice. The following applies: Table 3-1; 2 x 250 mg/kg p.o., ANIT 35 mg/kg p.o., 24 h; control 3.3, ANIT alone 5.3.
Excerpt: as §1
It is well known that experimental cholestasis is accomplished by administration with ANIT in mice and rats, and studied as a cholestasis model in human being.
ANIT and CCl4 induce necrosis in the liver. ANIT causes it as small focci in perilobular parenchyna and CCl4 causes centrilobular parenchymal coagulation necrosis.
From these information, the elevation of plasma GPT activity in these models are thought to have defferent characteristics.
Test compounds, dissolved or suspended in olive oil or diethyleneglycol, were orally administered 2 times at intervals of 3 hrs to mice at the dose of 250 mg/kg. At 3 hrs after the second administration with test compounds, ANIT was administered orally at 35 mg/kg.
Mice were sacrificed at 24 hrs after ANIT administration and blood samples were collected. The blood samples were centrifuged and plasma was obtained.
Plasma GPT activity and alkaline phosphatase activity were determined by Reitman & Frankel's method and Bessey-Lowry's method, respectively. The activity was expressed with Karmen Unit and Bessey-Lowry Unit, respectively.
`CCCCCOC(=O)C(C(=O)OCCCCC)=C1SC(O)C(O)S1` (centres unmarked) [Compound 8]: the Alkaline phosphatase activity is listed as 4.3 B-L.V.
As for `CCOC(=O)C(C(=O)OCC)=C1SC(O)C(O)S1` (centres unmarked) [Compound 2, diethyl 4,5-dihydroxy-1,3-dithiolan-2-ylidenemalonate], the Alkaline phosphatase activity is listed as 4.4 B-L.V.

Staying with this series, now noted: Table 3-1; 2 x 250 mg/kg p.o., ANIT 35 mg/kg p.o., 24 h; control 7.4, ANIT alone 324.0.
Regarding `CCCCCOC(=O)C(C(=O)OCCCCC)=C1SC(O)C(O)S1` (centres unmarked) [Compound 8], the p-GPT is reported as 56.0 K.U.
For `CCOC(=O)C(C(=O)OCC)=C1SC(O)C(O)S1` (centres unmarked) [Compound 2, diethyl 4,5-dihydroxy-1,3-dithiolan-2-ylidenemalonate], the p-GPT was 28.0 K.U.

Another series deals with fatty liver induced by carbon tetrachloride. Nature of the series: Protective effect on fatty liver (carbon tetrachloride). The class given is in vivo, rats (SD strain). To be noted: percentage of mean value in carbon tetrachloride alone group, 100 mg/kg/day p.o. for 4 days, control 32.0. On the procedure: Carbon tetrachloride also induces fatty liver. Carbon tetrachloride is generally considered to damage microsome and thereby to inhibit protein synthesis and induce fatty liver.
Carbon tetrachloride was subcutaneously administered to 5-6 week-old male rats (SD strain) for 4 days at the dose of 0.5 ml/kg/day.
Simultaneously, the compound of the present invention was orally administered to the rats for 4 days at the dose of 30 mg/kg/day or 100 mg/kg/day.
On the 5th day, the rats were sacrificed by exsanguination.
The controlling (protective) effect was evaluated by determining the content of triglyceride in the liver.
Triglyceride was determined colorimetrically by chromotropic acid method.
Each value represented the percentage of mean value in carbon tetrachloride alone group.
Regarding `CCOC(=O)C(C(=O)OCC)=C1SC(O)C(O)S1` (centres unmarked) [Compound 2, diethyl 4,5-dihydroxy-1,3-dithiolan-2-ylidenemalonate], the Triglyceride is listed as 46.6%.
